Measured values published in patent publication US9394284B2, “Compounds act at multiple prostaglandin receptors giving a general anti-inflammatory response” (Allergan, Inc., priority 2010, dated 2016).

Assays:
Strains TA 98 and TA 100 = experiment: Ames Test for mutagenicity; format: cell-based
Experimental: The compounds of FIGS. 3 and 3(a) were tested for mutagenicity by means of the Ames Test using Strains TA 98 and TA 100. The results were negative for both compounds.

[1] = test system: Dutch-belted pigmented rabbits; experiment: Arachidonate induced uveitis, anterior chamber leukocyte infiltration; format: in vivo, rabbit; conditions: topical, concentrations of 0.1, 0.3 and 1%; sodium arachidonate challenge; FIG. 12
Experimental: Arachidonate Induced Uveitis
The rational for this protocol is to use arachidonate to directly produce ocular anterior segment uveitis, as opposed to using lipopolysaccharide (LPS) to indirectly release arachidonic acid.
Conscious male or female Dutch-belted pigmented rabbits weighing 2.5-3 kg were used for all in vivo slit lamp studies. Four animals were employed per test group. The right eye of each animal receiving 35 μl of topically administered test and the contralateral left eye of each animal receiving 35 μl of topically administered vehicle (t=0 minutes), followed 30 minutes later by treatment with 35 μl of 0.5% sodium arachidonate onto the surface of both eyes (t=30 minutes). Both eyes were examined by slit lamp 60 minutes following sodium arachdionate challenge (t=90 minutes) at 16× magnification under both white light and blue light illumination at an approximate angle of 45° through 1 mm and 5 mm slit widths.
Measurement of Anterior Chamber Leukocyte Infiltration:
Anterior chamber leukocyte infiltration was measured using a numerical scoring system to estimate cell number per field defined by a 5 mm slit width: 0=no cells per field (no response); 1=1-10 cells per field (mild); 2=11-20 cells per field (moderate); 3=[…] cells per field (severe); 4=>50 cells per filed (florid). Results are reported as the mean score value±S.E.M.

[2] = test system: allergic conjunctival itch; experiment: Allergic conjunctival itch model; format: in vivo; conditions: FIGS. 10 and 11
Experimental: The compounds of this invention were tested according to the method described in “Characterization of Receptor Subtypes Involved in Prostanoid-Induced Conjunctival Pruritis and Their Role in Mediating Conjunctival Itching”, Vol. 279, No. 1, (JPET) 279, 137-142' 1996 for their efficacy in alleviating itch.

[3] = biological target: T1, human prostanoid FP receptor (Homo sapiens, UniProt P43088); experiment: FLIPR Ca2+ signaling antagonist assay, FP receptor stable cell line; format: cell-based; conditions: HEK-293 EBNA stable cell line; standard agonist 17-phenyl-PGF2α; NA = inactive (no antagonism or Kb 10,000 nM); PAg, Ag not defined
T1 construct: expressed in transfected cells
In short: (§1)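 Peak Fluo-4 fluorescence (ex 470–495, em 515–575 nm) was read for 3.5 min on FLIPR after agonist injection and expressed relative to 10^−6 M standard agonist. Cells were HEK-293 EBNA transfectants. Test compound was added 4.5 min beforehand at 0.1–30 μM, or 0.067–1 μM for TP.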

[4] = biological target: T2, human prostanoid EP4 receptor (Homo sapiens, UniProt P35408); experiment: FLIPR Ca2+ signaling antagonist assay, EP4 receptor stable cell line; format: cell-based; conditions: HEK-293 EBNA stable cell line; standard agonist PGE2; NA = inactive (no antagonism or Kb 10,000 nM); PAg, Ag not defined
T2 construct: expressed in transfected cells
In short: as §1

[5] = biological target: T3, human prostanoid IP receptor (Homo sapiens, UniProt P43119); experiment: FLIPR Ca2+ signaling antagonist assay, IP receptor stable cell line; format: cell-based; conditions: HEK-293 EBNA stable cell line; standard agonist Cicaprost; NA = inactive (no antagonism or Kb 10,000 nM); PAg, Ag not defined
T3 construct: expressed in transfected cells
In short: (§2)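 HEK-293 EBNA cells stably expressing receptor (EP3 co-expressed with chimeric Gqi; EP1, IP, TP without exogenous G protein), Fluo-4 loaded, read on FLIPR at 37° C. Antagonist added 4.5 min before standard agonist (EP1/EP3 PGE2, IP cicaprost 10^−11–10^−5 M; TP U-46619 10^−12–10^−6 M); antagonist 0.1–30 μM, TP 0.067–1 μM; peak fluorescence relative to 10^−6 M agonist.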

[6] = biological target: T4, human prostanoid EP2 receptor (Homo sapiens, UniProt P43116); experiment: FLIPR Ca2+ signaling antagonist assay, EP2 receptor stable cell line; format: cell-based; conditions: HEK-293 EBNA stable cell line; standard agonist PGE2; NA = inactive (no antagonism or Kb 10,000 nM); PAg, Ag not defined
T4 construct: expressed in transfected cells
Experimental: The above compounds were tested for PG antagonist activity as follows using human recombinant prostanoid receptor (DP1, EP1-4, FP, IP and TP) stable cell lines:
In order to measure the response of Gs and Gi coupled prostanoid receptors as a Ca^2+ signal, chimeric G protein cDNAs were used. Stable cell lines over-expressing human prostanoid DP1, EP1-4, FP, IP, and TP receptors were established as follows:
Briefly, human prostanoid DP1, EP2, and EP4 receptor cDNAs were co-transfected with chimeric Gqs cDNA containing a haemagglutanin (HA) epitope; human prostanoid EP3 receptors were co-transfected with chimeric Gqi-HA; human EP1, FP, IP, and TP receptor cDNAs were expressed with no exogenous G-proteins. Gqs and Gqi chimeric cDNAs (Molecular Devices, Sunnyvale, Calif., U.S.A.), as well as cDNAs of prostanoid receptors, were cloned into a pCEP4 vector with a hygromycin B selection marker. Transfection into HEK-293 EBNA (Epstein-Barr virus nuclear antigen) cells was achieved by the FuGENE 6 transfection Reagent (Roche Applied Science, Indianapolis, Ind., USA). Stable transfectants were selected according to hygromycin resistance. Because Gqs and Gqi contained an HA epitope, G-protein expression was detected by Western blotting analysis using anti-mouse HA monoclonal antibody and horseradish peroxidase (HRP)-conjugated secondary antibody, while functional expression of prostanoid receptors was detected by FLIPR screening (Matias et al., 2004). These stable cell lines were validated using previously published antagonists at 10 μM against serial dilutions of standard agonists by FLIPR functional assays for Ca^2+ Signaling (as described below).
Ca^2+ signaling studies were performed using a FLIPR TETRA system (Molecular Devices, Sunnyvale, Calif., USA) in the 384-format. This is a high-throughput instrument for cell-based assays to monitor Ca^2+ signaling associated with GPCRs and ion channels. Cells were seeded at a density of 5×10^4 cells/well in BioCoat poly-D-lysine coated, black wall, clear bottom 384-well plates (BD Biosciences, Franklin lakes, NJ, USA) and allowed to attach overnight in an incubator at 37° C. The cells were then washed twice with HBSS-HEPES buffer (Hanks' balanced salt solution without bicarbonate and phenol red, 20 mM HEPES, pH 7.4) using an ELx405 Select CW Microplate Washer (BioTek, Winooski, Vt., USA). After 60 min of dye-loading in the dark using the Ca^2+-sensitive dye Fluo-4AM (Invitrogen, Carlsbad, Calif., USA), at a final concentration of 2×10^−6M, the plates were washed 4 times with HBSS-HEPES buffer to remove excess dye and leaving 50 μl of buffer in each well. The plates were then placed in the FLIPR TETRA instrument and allowed to equilibrate at 37° C. AGN-211377 was added in a 25 μl volume to each well to give final concentrations of 0.1 μM, 0.3 μM, 1 μM, 3 μM, 10 μM, and 30 μM; or 0.067 μM, 0.1 μM, 0.2 μM, 0.3 μM, 0.67 μM, and 1 μM for cells over-expressing TP receptors. After 4.5 minutes, a 7-point serial dilution of the standard agonist for the corresponding receptor, in a 25 μl volume was injected at the final concentrations from 10^−11M to 10^−5M in 10-fold serial dilution increments for cells expressing human recombinant DP1, EP1, EP2, EP3, EP4, FP, and IP receptors. The dose range for the standard agonist for human recombinant TP receptors was from 10^−12 M to 10^−6 M. HBSS-HEPES buffer was used as the negative control for the standard agonists. Cells were excited with LED (light emitting diode) excitation at 470-495 nm and emission was measured through an emission filter at 515-575 nm. Assay plates were read for 3.5 minutes using the FLIPR^TETRA. The peak increase in fluorescence intensity was recorded for each well. On each plate, negative controls, dose response of positive controls, and co-treatments of antagonist-agonist for each dose were in triplicates.
Standard agonists were as follows: DP=BW 245C, EP1-EP4=PGE2, FP=17-phenyl-PGF2α, IP=Cicaprost, and TP=U-46619. […]

[7] = biological target: T5, human prostanoid DP1 receptor (Homo sapiens, UniProt Q13258); experiment: FLIPR Ca2+ signaling antagonist assay, DP1 receptor stable cell line; format: cell-based; conditions: HEK-293 EBNA stable cell line; standard agonist BW 245C; NA = inactive (no antagonism or Kb 10,000 nM); PAg, Ag not defined
T5 construct: expressed in transfected cells
T5 sequence (Q13258 1-359): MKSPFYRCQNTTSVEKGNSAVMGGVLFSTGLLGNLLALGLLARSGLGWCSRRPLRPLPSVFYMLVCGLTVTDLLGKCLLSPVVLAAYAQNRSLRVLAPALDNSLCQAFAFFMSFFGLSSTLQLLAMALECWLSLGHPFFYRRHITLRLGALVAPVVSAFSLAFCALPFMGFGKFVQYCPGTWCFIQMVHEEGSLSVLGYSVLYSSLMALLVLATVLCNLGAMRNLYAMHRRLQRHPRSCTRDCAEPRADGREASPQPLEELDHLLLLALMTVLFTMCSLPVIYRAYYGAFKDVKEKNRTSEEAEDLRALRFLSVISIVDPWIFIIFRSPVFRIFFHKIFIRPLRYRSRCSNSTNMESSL
In short: as §1

[8] = biological target: T6, human prostanoid EP1 receptor (Homo sapiens, UniProt P34995); experiment: FLIPR Ca2+ signaling antagonist assay, EP1 receptor stable cell line; format: cell-based; conditions: HEK-293 EBNA stable cell line; standard agonist PGE2; NA = inactive (no antagonism or Kb 10,000 nM); PAg, Ag not defined
T6 construct: expressed in transfected cells
T6 sequence (P34995 1-402): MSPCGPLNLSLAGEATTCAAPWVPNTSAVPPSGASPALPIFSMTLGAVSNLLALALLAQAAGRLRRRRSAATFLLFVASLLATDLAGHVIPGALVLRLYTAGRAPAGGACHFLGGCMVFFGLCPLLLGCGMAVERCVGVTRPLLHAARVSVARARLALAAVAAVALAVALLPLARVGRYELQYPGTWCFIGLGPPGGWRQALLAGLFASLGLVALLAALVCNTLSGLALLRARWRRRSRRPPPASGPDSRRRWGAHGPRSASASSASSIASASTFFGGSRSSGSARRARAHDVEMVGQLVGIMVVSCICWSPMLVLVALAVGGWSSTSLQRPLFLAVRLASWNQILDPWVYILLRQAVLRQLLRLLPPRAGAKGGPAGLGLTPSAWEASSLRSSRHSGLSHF
In short: as §2

[9] = biological target: T7, human prostanoid TP receptor (Homo sapiens, UniProt P21731); experiment: FLIPR Ca2+ signaling antagonist assay, TP receptor stable cell line; format: cell-based; conditions: HEK-293 EBNA stable cell line; standard agonist U-46619; NA = inactive (no antagonism or Kb 10,000 nM); PAg, Ag not defined
T7 construct: expressed in transfected cells
T7 sequence (P21731 1-343): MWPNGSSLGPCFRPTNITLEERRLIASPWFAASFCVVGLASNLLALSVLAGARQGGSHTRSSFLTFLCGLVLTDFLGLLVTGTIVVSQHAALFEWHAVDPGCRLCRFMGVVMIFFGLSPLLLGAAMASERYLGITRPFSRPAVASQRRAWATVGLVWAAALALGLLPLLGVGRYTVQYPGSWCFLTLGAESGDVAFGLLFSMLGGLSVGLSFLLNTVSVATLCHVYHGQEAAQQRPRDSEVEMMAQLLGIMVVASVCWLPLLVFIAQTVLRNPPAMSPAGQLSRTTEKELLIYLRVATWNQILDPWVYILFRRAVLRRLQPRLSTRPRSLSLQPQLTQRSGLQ
In short: as §2

T4 sequence (P43116 whole entry): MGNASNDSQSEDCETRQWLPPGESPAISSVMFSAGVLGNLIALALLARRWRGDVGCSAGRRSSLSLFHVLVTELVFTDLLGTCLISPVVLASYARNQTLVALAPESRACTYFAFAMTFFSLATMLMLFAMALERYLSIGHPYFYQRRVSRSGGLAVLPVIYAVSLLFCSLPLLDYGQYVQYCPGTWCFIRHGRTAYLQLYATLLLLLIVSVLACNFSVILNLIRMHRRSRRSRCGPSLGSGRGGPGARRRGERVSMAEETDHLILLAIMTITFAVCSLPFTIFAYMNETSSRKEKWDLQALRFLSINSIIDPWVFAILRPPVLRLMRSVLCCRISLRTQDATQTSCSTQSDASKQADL
T1 sequence (P43088 whole entry): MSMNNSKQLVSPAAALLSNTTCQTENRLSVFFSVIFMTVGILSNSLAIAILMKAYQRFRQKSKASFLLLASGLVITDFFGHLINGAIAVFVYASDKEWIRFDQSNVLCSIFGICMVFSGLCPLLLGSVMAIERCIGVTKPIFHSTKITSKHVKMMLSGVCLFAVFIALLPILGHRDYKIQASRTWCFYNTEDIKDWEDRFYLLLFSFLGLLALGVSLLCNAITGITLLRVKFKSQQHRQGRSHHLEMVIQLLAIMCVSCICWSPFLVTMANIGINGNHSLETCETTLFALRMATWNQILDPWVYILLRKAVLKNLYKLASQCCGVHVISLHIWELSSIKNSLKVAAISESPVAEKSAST
T3 sequence (P43119 whole entry): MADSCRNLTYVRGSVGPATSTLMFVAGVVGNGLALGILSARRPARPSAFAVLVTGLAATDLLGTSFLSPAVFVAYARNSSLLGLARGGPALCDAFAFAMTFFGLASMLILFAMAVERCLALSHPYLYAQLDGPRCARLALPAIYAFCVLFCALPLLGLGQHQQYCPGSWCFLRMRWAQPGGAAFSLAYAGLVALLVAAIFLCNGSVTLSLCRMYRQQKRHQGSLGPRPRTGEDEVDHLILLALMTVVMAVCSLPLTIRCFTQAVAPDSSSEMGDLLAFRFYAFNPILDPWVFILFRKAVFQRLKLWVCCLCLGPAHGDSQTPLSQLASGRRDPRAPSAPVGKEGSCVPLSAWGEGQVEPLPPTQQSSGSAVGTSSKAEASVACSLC
T2 sequence (P35408 whole entry): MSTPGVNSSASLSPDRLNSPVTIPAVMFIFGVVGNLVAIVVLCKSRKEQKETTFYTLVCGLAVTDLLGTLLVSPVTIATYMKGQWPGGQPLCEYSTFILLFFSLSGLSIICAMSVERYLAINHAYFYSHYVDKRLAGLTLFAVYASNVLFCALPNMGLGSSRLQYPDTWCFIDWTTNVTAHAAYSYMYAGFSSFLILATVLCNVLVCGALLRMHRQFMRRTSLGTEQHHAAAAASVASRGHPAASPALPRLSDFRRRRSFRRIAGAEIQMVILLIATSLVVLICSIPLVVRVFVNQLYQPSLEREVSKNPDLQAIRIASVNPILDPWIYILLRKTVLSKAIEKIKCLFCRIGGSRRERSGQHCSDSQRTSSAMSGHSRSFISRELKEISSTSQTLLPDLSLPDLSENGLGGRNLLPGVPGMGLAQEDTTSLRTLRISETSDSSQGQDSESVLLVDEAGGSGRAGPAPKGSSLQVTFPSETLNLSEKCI

Compound | mutagenicity (Ames Test) (Strains TA 98 and TA 100) | anterior chamber leukocyte infiltration (uveitis model) [1] | number of itch-scratch episodes [2] | Kb [3] [µM] | Kb [4] [µM] | Kb [5] [µM] | Kb [6] [µM] | Kb [7] [µM] | Kb [8] [µM] | Kb [9] [µM] | EP4 (FLIPR) Kb [4] | IP (FLIPR) Kb [5] | EP2 (FLIPR) Kb [6] | DP1 (FLIPR) Kb [7] | EP1 (FLIPR) Kb [8] | TP (FLIPR) Kb [9]
CCC(CC)COc1ccc(Br)cc1Cn1nc(CCC(=O)O)cc1C [Example 3, 3-{1-[5-Bromo-2-(2-ethyl-butoxy)-benzyl]-5-methyl-1H-pyrazol-3-yl}-propionic acid] | negative | dose dependent response | significantly lower number of itch-scratch episodes | – | – | – | – | – | – | – | – | – | – | – | – | –
COc1ccc(COc2ccc(Cl)cc2Cn2nc(CCC(=O)O)cc2C)cc1 [Example 31, 3-[1-(5-Chloro-2-(4-methoxybenzyloxy)benzyl)-5-methyl-1H-pyrazol-3-yl]-propionic acid] | – | – | – | 0.2 | 7.4 | 1.2 | 2.5 | 0.3 | 0.3 | 0.009 | – | – | – | – | – | –
Cc1cc(CCC(=O)O)nn1Cc1cc(Cl)ccc1OCCC1CCCC1 [Example 39, 3-[1-(5-Chloro-2-(2-cyclopentylethoxy)benzyl)-5-methyl-1H-pyrazol-3-yl]-propionic acid] | – | – | – | 0.3 | – | – | – | – | – | – | PAg | PAg | PAg | PAg | PAg | PAg
Cc1cc(CCC(=O)O)nn1Cc1cc(Br)ccc1OCC1CCC1 [Example 12, 3-[1-(5-Bromo-2-(2-cyclobutylmethoxy)-benzyl)-5-methyl-1H-pyrazol-3-yl]-propionic acid] | – | – | – | 0.03 | 0.5 | 3.6 | 1.7 | 0.11 | 0.03 | 0.03 | – | – | – | – | – | –
Cc1cc(CCCCC(=O)O)nn1Cc1cc(Cl)ccc1OCC1CCCC1 [Example 41, 5-[1-(5-Chloro-2-cyclopentylmethoxybenzyl)-5-methyl-1H-pyrazol-3-yl]-pentanoic acid] | – | – | – | 0.2 | 1 | 5.5 | 8.2 | – | 0.35 | 0.03 | – | – | – | PAg | – | –
